Among the data in PubChem BioAssay (NCI) are TGI values, retold here.

Test systems include 786-0 renal; CAKI-1 renal; HCT-116 colon; MDA-N; NCI-H226 lung; NCI-H460 lung; OVCAR-8 ovarian; SK-MEL-28 melanoma; TK-10 renal; U251 CNS; UACC-62 melanoma.
What all share (assay): NCI-60 cell line screen, 48 h

The structures appear in SMILES notation.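 These data come from cells grown in 96-well plates and exposed to compound for 48 hours at five concentrations. TGI denotes the concentration required for complete inhibition of growth.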

In the case of `C[N+]12CCCCC1C(CN1C(=O)Cc3c4ccccc4c(c4ccccc34)CC1=O)CCC2` (configuration not stated), the TGI in the assay on 786-0 renal, in the assay on CAKI-1 renal, with HCT-116 colon, with MDA-N, in the assay on NCI-H226 lung and in the assay on NCI-H460 lung was greater than 100 µM in each case. For the same compound, the TGI in the assay on OVCAR-8 ovarian, in the assay on SK-MEL-28 melanoma, in the assay with TK-10 renal, in the assay on U251 CNS and in the assay with UACC-62 melanoma was greater than 100 µM each time.

Turning to `NNC(=O)CSc1nc2ccccc2c(=O)n1N`, the TGI in the assay on 786-0 renal is 57.4 µM; in the assay with CAKI-1 renal it was greater than 100 µM; with HCT-116 colon, greater than 100 µM; with MDA-N, greater than 100 µM; in the assay on NCI-H226 lung it was greater than 100 µM; in the assay on NCI-H460 lung, greater than 100 µM. Further, the TGI in the assay on OVCAR-8 ovarian is greater than 100 µM; in the assay with SK-MEL-28 melanoma it was greater than 100 µM; in the assay with TK-10 renal, 40.9 µM; with U251 CNS it was 89.3 µM; in the assay on UACC-62 melanoma, greater than 100 µM.
